{"source": "patent US20160367578A1", "about": "“METHODS AND COMPOSITIONS FOR ERADICATING LEUKEMIC CELLS” (priority 2013, published 2016)", "key": {"normal bone marrow cells": {"test_system": "normal bone marrow cells", "assay": "Co-culture viability with enoxolone, normal bone marrow cells (myeloid vs. non-myeloid)", "type": "cell-based", "parameters": "dose or concentration left out as unconfirmed", "conditions": "[…] μM, 20 hours", "experimental": "(§1) Primary MLL-AF9^LKS acute myeloid leukemia cells (red bars) were co-cultured with normal BM mononuclear cells (blue bars). Cells in co-culture were exposed to enoxolone for 20 hours (at 0, 5, 20, 50, 100 and 200 μM) and then cell viability was analyzed by flow cytometry (live leukemia cells=GFP+/7AAD−; live normal cells=GFP−/7AAD−).\nCells in co-culture were exposed to enoxolone for 20 hours (at 0, 5, 20, 50, 100 and 200 μM)."}, "[1]": {"test_system": "Primary MLL-AF9 LKS acute myeloid leukemia cells", "assay": "Co-culture viability with enoxolone, leukemia cells (GFP+/7AAD-)", "type": "cell-based", "conditions": "20 hours, 0, 5, 20, 50, 100 and 200 μM", "experimental": "as §1"}}}
{"smiles": "CC1(C)[C@@H](O)CC[C@]2(C)[C@H]3C(=O)C=C4[C@@H]5C[C@@](C)(C(=O)O)CC[C@]5(C)CC[C@@]4(C)[C@]3(C)CC[C@@H]12", "note": "[enoxolone, 18β-glycyrrhetinic acid]", "values": [{"measurement": "toxicity to normal non-myeloid cells", "setting": "normal bone marrow cells", "result": "toxic to normal non-myeloid cells"}, {"measurement": "leukemia cell eradication in co-culture with normal BM mononuclear cells", "setting": "[1]", "result": "selective leukemia cell eradication"}]}
